Assay results as given in ChEMBL document CHEMBL1135565, “Synthesis of base-modified dihydropacidamycins” (2002).

Tests used:
Assay type in all cases: functional
[1] = system: Pasteurella multocida; experiment: Minimum inhibitory concentration against Pasteurella multocida
[2] = system: Pseudomonas aeruginosa; experiment: Minimum inhibitory concentration against Pseudomonas aeruginosa
[3] = system: Escherichia coli; experiment: Minimum inhibitory concentration against Escherichia coli
[4] = system: Staphylococcus aureus; experiment: Minimum inhibitory concentration against Staphylococcus aureus

Measured: MIC

C[C@H](NC(=O)N[C@@H](Cc1c[nH]c2ccccc12)C(=O)O)C(=O)N[C@H](C(=O)NC[C@H]1C[C@@H](O)[C@H](n2ccc(=O)n(C)c2=O)O1)[C@H](C)N(C)C(=O)[C@@H](C)N
> 512 µg/mL: all assays above

COc1cccn([C@@H]2O[C@@H](CNC(=O)[C@@H](NC(=O)[C@H](C)NC(=O)N[C@@H](Cc3c[nH]c4ccccc34)C(=O)O)[C@H](C)N(C)C(=O)[C@@H](C)N)C[C@H]2O)c1=O
> 512 µg/mL: all assays above

Cc1cn([C@@H]2O[C@@H](CNC(=O)[C@@H](NC(=O)[C@H](C)NC(=O)N[C@@H](Cc3c[nH]c4ccccc34)C(=O)O)[C@H](C)N(C)C(=O)[C@@H](C)N)C[C@H]2O)c(=O)[nH]c1=O
> 512 µg/mL: all assays above

Cc1c(C)n([C@@H]2O[C@@H](CNC(=O)[C@@H](NC(=O)[C@H](C)NC(=O)N[C@@H](Cc3c[nH]c4ccccc34)C(=O)O)[C@H](C)N(C)C(=O)[C@@H](C)N)C[C@H]2O)c(=O)[nH]c1=O
> 512 µg/mL: all assays above

C[C@H](NC(=O)N[C@@H](Cc1c[nH]c2ccccc12)C(=O)O)C(=O)N[C@H](C(=O)NC[C@H]1C[C@@H](O)[C@H](n2cc(Cl)c(=O)[nH]c2=O)O1)[C@H](C)N(C)C(=O)[C@@H](C)N
> 512 µg/mL: all assays above

C[C@H](NC(=O)N[C@@H](Cc1c[nH]c2ccccc12)C(=O)O)C(=O)N[C@H](C(=O)NC[C@H]1C[C@@H](O)[C@H](n2cc(F)c(=O)[nH]c2=O)O1)[C@H](C)N(C)C(=O)[C@@H](C)N
> 512 µg/mL: all assays above

Cc1cc(=O)[nH]c(=O)n1[C@@H]1O[C@@H](CNC(=O)[C@@H](NC(=O)[C@H](C)NC(=O)N[C@@H](Cc2c[nH]c3ccccc23)C(=O)O)[C@H](C)N(C)C(=O)[C@@H](C)N)C[C@H]1O
> 512 µg/mL: all assays above
